{"source": "the RepoRT retention time repository (doi:10.1021/es4044374)", "data": [{"assay": "RP, Waters XBridge C18, 50 × 2.1 mm, 3.5 µm, 30 °C, 0.2 mL/min, estimated dead time 0.55 min; A: water + 0.1% formic acid, pH 3; B: methanol + 0.1% formic acid, pH 3; gradient (min/%B) 0/10 4/50 17/95 25/95 25.1/10 30/10", "conditions": "stereoisomer not certain", "units": {"LC retention time": "min"}, "values": [{"compound": "O=C(O)c1cn(C2CC2)c2cc(N3CCNCC3)c(F)cc2c1=O", "note": "[Ciprofloxacin]", "LC retention time": 4.5}, {"compound": "COc1cc(NS(=O)(=O)c2ccc(N)cc2)nc(OC)n1", "note": "[Sulfadimethoxine]", "LC retention time": 5.7}, {"compound": "O=[N+]([O-])/N=C1\\NCCN1Cc1ccc(Cl)nc1", "note": "[Imidacloprid]", "LC retention time": 4.8}, {"compound": "CNC(=C[N+](=O)[O-])NCCS(=O)Cc1ccc(CN(C)C)o1", "note": "(configuration not stated) [Ranitidine-S-oxide]", "LC retention time": 0.8}, {"compound": "CC(C)Nc1nc(N)[nH]c(=O)n1", "note": "[Atrazine-desethyl-2-hydroxy]", "LC retention time": 1.4}, {"compound": "CC(C(=O)O)c1cccc(C(=O)c2ccccc2)c1", "note": "(configuration not stated) [Ketoprofen]", "LC retention time": 9.6}, {"compound": "COc1ccc(C(CN(C)C)C2(O)CCCCC2)cc1", "note": "(configuration not stated) [Venlafaxine]", "LC retention time": 6.2}, {"compound": "O=C(O)c1cccc(Oc2ccccc2)c1", "note": "[3-Phenoxybenzoic acid]", "LC retention time": 11.5}, {"compound": "CCCC1CC(C(=O)NC(C(C)Cl)C2OC(SC)C(O)C(O)C2O)N(C)C1", "note": "(configuration not stated) [Clindamycin]", "LC retention time": 6.7}, {"compound": "O=P1(N(CCCl)CCCl)NCCCO1", "note": "(configuration not stated) [Cyclophosphamide]", "LC retention time": 6.3}, {"compound": "OC(Cn1cncn1)(Cn1cncn1)c1ccc(F)cc1F", "note": "[Fluconazole]", "LC retention time": 5.3}, {"compound": "CC(=O)Nc1ccc(S(=O)(=O)Nc2nc(C)cc(C)n2)cc1", "note": "[N4-Acetylsulfamethazine]", "LC retention time": 4.5}, {"compound": "CCNc1nc(Cl)nc(NC(C)(C)C)n1", "note": "[Terbutylazine]", "LC retention time": 10.1}, {"compound": "NC(=O)N=C1SCCN1Cc1ccc(Cl)nc1", "note": "[Thiacloprid-amide]", "LC retention time": 4.6}, {"compound": "CS(=O)(=O)c1ccc(C(=O)C2C(=O)CCCC2=O)c([N+](=O)[O-])c1", "note": "[Mesotrione]", "LC retention time": 6.2}, {"compound": "CCCN(CCOc1c(Cl)cc(Cl)cc1Cl)C(=O)n1ccnc1", "note": "[Prochloraz]", "LC retention time": 12.2}, {"compound": "CC1=NNC(=O)N(N=Cc2cccnc2)C1", "note": "[Pymetrozine]", "LC retention time": 1.5}, {"compound": "CN1COCN(Cc2cnc(Cl)s2)C1=N[N+](=O)[O-]", "note": "[Thiamethoxam]", "LC retention time": 4.1}, {"compound": "COc1ccc(C(=CC(=O)N2CCOCC2)c2ccc(Cl)cc2)cc1OC", "note": "[Dimethomorph]", "LC retention time": 10.8}, {"compound": "Cc1cc(Cl)ccc1OCCCC(=O)O", "note": "[MCPB]", "LC retention time": 11.9}, {"compound": "COc1ccc2c(c1)C13CCCCC1C(C2)N(C)CC3", "note": "(configuration not stated) [Dextromethorphan]", "LC retention time": 6.6}, {"compound": "O=C(O)c1cc(Br)c(O)c(Br)c1", "note": "[3,5-Dibromo-4-hydroxybenzoic acid]", "LC retention time": 7.3}, {"compound": "CCOC(=O)C1=CC(OC(CC)CC)C(NC(C)=O)C(N)C1", "note": "(configuration not stated) [Oseltamivir]", "LC retention time": 7}, {"compound": "CC(N)Cc1ccccc1", "note": "(configuration not stated) [Amphetamine]", "LC retention time": 3.5}, {"compound": "O=S(=O)(O)c1ccc2ccccc2c1", "note": "[2-Naphthalenesulfonic acid]", "LC retention time": 5.2}, {"compound": "CC(C)(C)C(=O)C(Oc1ccc(Cl)cc1)n1ccnc1", "note": "(configuration not stated) [Climbazol]", "LC retention time": 8.1}, {"compound": "O=C(Nc1ccc(Cl)cc1)Nc1ccc(Cl)c(Cl)c1", "note": "[Triclocarban]", "LC retention time": 14.8}, {"compound": "O=C1CC(C(=O)O)CC(=O)C1=C(O)C1CC1", "note": "(configuration not stated) [Trinexapac]", "LC retention time": 6.9}, {"compound": "Cc1ncc([N+](=O)[O-])n1CCO", "note": "[Metronidazole]", "LC retention time": 2.1}, {"compound": "Cc1c(N(C)C)c(=O)n(-c2ccccc2)n1C", "note": "[Aminopyrine]", "LC retention time": 2.6}, {"compound": "c1ccc(CN2CCNCC2)cc1", "note": "[1-Benzylpiperazine]", "LC retention time": 1.2}, {"compound": "CN(C)CC(c1ccc(O)cc1)C1(O)CCCCC1", "note": "(configuration not stated) [O-desmethylvenlafaxine]", "LC retention time": 4.8}, {"compound": "Clc1ccccc1C(c1ccccc1)(c1ccccc1)n1ccnc1", "note": "[Clotrimazole]", "LC retention time": 8.8}, {"compound": "CCOCN(C(=O)CS(=O)(=O)O)c1c(C)cccc1CC", "note": "[Acetochlor ESA]", "LC retention time": 7.7}, {"compound": "O=P(O)(OCCC(F)(F)C(F)(F)C(F)(F)C(F)(F)C(F)(F)C(F)(F)C(F)(F)C(F)(F)F)OCCC(F)(F)C(F)(F)C(F)(F)C(F)(F)C(F)(F)C(F)(F)C(F)(F)C(F)(F)F", "note": "[Bisperfluorodecyl phosphate]", "LC retention time": 20.4}, {"compound": "CCNc1nc(NC(C)C)nc(OC)n1", "note": "[Atraton]", "LC retention time": 5.7}, {"compound": "OCC1OC(OC2(CCl)OC(CCl)C(O)C2O)C(O)C(O)C1Cl", "note": "(configuration not stated) [Sucralose]", "LC retention time": 4.4}, {"compound": "Cc1cccc(C)c1N(Cn1cccn1)C(=O)CCl", "note": "[Metazachlor]", "LC retention time": 8.5}, {"compound": "O=P1(NCCCl)OCCCN1CCCl", "note": "(configuration not stated) [Ifosfamide]", "LC retention time": 6.3}, {"compound": "O=C(O)C(F)(F)C(F)(F)C(F)(F)C(F)(F)C(F)(F)C(F)(F)F", "note": "[Perfluoroheptanoic acid]", "LC retention time": 11.1}, {"compound": "CC(C)c1ccc(NC(N)=O)cc1", "note": "[Isoproturon-didemethyl]", "LC retention time": 8}, {"compound": "O=[N+]([O-])c1cc(C(F)(F)F)c(Cl)c([N+](=O)[O-])c1Nc1ncc(C(F)(F)F)cc1Cl", "note": "[Fluazinam]", "LC retention time": 15.9}, {"compound": "Cc1cccc(C)c1N(Cn1cccn1)C(=O)C(=O)O", "note": "[Metazachlor OXA]", "LC retention time": 5.5}, {"compound": "CC(=O)Nc1ccc(O)cc1", "note": "[Paracetamol]", "LC retention time": 2.2}, {"compound": "Cc1cc(Cl)ccc1OCC(=O)O", "note": "[MCPA]", "LC retention time": 9.5}, {"compound": "COC(=O)NS(=O)(=O)c1ccc(N)cc1", "note": "[Asulam]", "LC retention time": 2.4}, {"compound": "CCC1(c2ccccc2)C(=O)NCNC1=O", "note": "[Primidone]", "LC retention time": 5.4}, {"compound": "COCCN(C(=O)C(=O)O)c1c(C)cccc1C", "note": "[Dimethachlor OXA]", "LC retention time": 6.6}, {"compound": "CCCC(C)C1(CC)C(=O)NC(=S)NC1=O", "note": "(configuration not stated) [Thiopental]", "LC retention time": 9}, {"compound": "CCNC(=O)C(C)OC(=O)Nc1ccccc1", "note": "(configuration not stated) [Carbetamide]", "LC retention time": 6.6}, {"compound": "CC(C)N(C(=O)CS(=O)(=O)O)c1ccccc1", "note": "[Propachlor ESA]", "LC retention time": 5.9}, {"compound": "C=C1C(=O)NC(C)C(=O)NC(CC(C)C)C(=O)NC(C(=O)O)C(C)C(=O)NC(CCCN=C(N)N)C(=O)NC(C=CC(C)=CC(C)C(Cc2ccccc2)OC)C(C)C(=O)NC(C(=O)O)CCC(=O)N1C", "note": "(configuration not stated) [Microcystin-LR]", "LC retention time": 10.2}, {"compound": "CCCN(CC)CC1COC2(CCC(C(C)(C)C)CC2)O1", "note": "(configuration not stated) [Spiroxamine]", "LC retention time": 10.1}, {"compound": "COc1ccc2cc(C(C)C(=O)O)ccc2c1", "note": "(configuration not stated) [Naproxen]", "LC retention time": 10.2}, {"compound": "Cc1ccc(NS(=O)(=O)N(C)C)cc1", "note": "[N,N-Dimethyl-N'-p-tolylsulphamide]", "LC retention time": 7.5}, {"compound": "CCOc1nc2cccc(C(=O)O)c2n1Cc1ccc(-c2ccccc2-c2nn[nH]n2)cc1", "note": "[Candesartan]", "LC retention time": 9.3}, {"compound": "CNC(=N[N+](=O)[O-])NCc1cnc(Cl)s1", "note": "[Clothianidin]", "LC retention time": 4.9}, {"compound": "NCC1(CC(=O)O)CCCCC1", "note": "[Gabapentin]", "LC retention time": 3.6}, {"compound": "CNC1(c2ccccc2Cl)CCCCC1=O", "note": "(configuration not stated) [Ketamine]", "LC retention time": 4.6}, {"compound": "COc1ccnc(CS(=O)c2nc3ccc(OC(F)F)cc3[nH]2)c1OC", "note": "(configuration not stated) [Pantoprazole]", "LC retention time": 6.6}, {"compound": "CC(C)(C)NCC(O)c1ccc(O)c(CO)c1", "note": "(configuration not stated) [Albuterol]", "LC retention time": 2}, {"compound": "CN(CC(=O)O)S(=O)(=O)C(F)(F)C(F)(F)C(F)(F)C(F)(F)C(F)(F)C(F)(F)C(F)(F)C(F)(F)F", "note": "[N-methylperfluorooctane sulfonamidoacetic acid]", "LC retention time": 16.5}, {"compound": "C1=Cc2ccccc2Nc2ccccc21", "note": "[Iminostilbene]", "LC retention time": 11}, {"compound": "Clc1cccc(N2CCNCC2)c1", "note": "[1-(3-Chlorophenyl)piperazine]", "LC retention time": 5.2}, {"compound": "CC(C1CC1)C(O)(Cn1cncn1)c1ccc(Cl)cc1", "note": "(configuration not stated) [Cyproconazole]", "LC retention time": 11.5}, {"compound": "Cn1ncc(N)c(Cl)c1=O", "note": "[Chloridazone-methyl-desphenyl]", "LC retention time": 2.2}, {"compound": "O=C1CCC2(O)C3Cc4ccc(O)c5c4C2(CCN3CC2CC2)C1O5", "note": "(configuration not stated) [Naltrexone]", "LC retention time": 3.1}, {"compound": "CNC(=O)CSP(=S)(OC)OC", "note": "[Dimethoate]", "LC retention time": 5.2}, {"compound": "COCCN(C(=O)CCl)c1c(C)cccc1C", "note": "[Dimethachlor]", "LC retention time": 9.1}, {"compound": "NS(=O)(=O)c1cc2c(cc1Cl)NCNS2(=O)=O", "note": "[Hydrochlorothiazide]", "LC retention time": 2.2}, {"compound": "Nc1ccc(S(=O)(=O)Nc2nccs2)cc1", "note": "[Sulfathiazole]", "LC retention time": 2.8}, {"compound": "O=C(O)C(F)(F)C(F)(F)C(F)(F)F", "note": "[Perfluorobutyric acid]", "LC retention time": 5.1}, {"compound": "O=C(O)Cc1ccccc1Nc1c(Cl)cccc1Cl", "note": "[Diclofenac]", "LC retention time": 12.8}, {"compound": "Oc1ccc(Cl)cc1", "note": "[4-Chlorophenol]", "LC retention time": 7.3}, {"compound": "Cc1cccc(Nc2ccccc2C(=O)O)c1C", "note": "[Mefenamic acid]", "LC retention time": 14.5}, {"compound": "CN(C)CCC=C1c2ccccc2CCc2ccccc21", "note": "[Amitriptyline]", "LC retention time": 8.6}, {"compound": "O=C(O)C(c1ccccc1Cl)N1CCc2sccc2C1", "note": "(configuration not stated) [Clopidogrel carboxylic acid]", "LC retention time": 5.7}, {"compound": "CN(CC(O)CO)C(=O)c1c(I)c(NC(=O)C(CO)CO)c(I)c(C(=O)N(C)CC(O)CO)c1I", "note": "(configuration not stated) [Iobitridol]", "LC retention time": 1.6}, {"compound": "CCC1OC(=O)CC(O)C(C)C(OC2OC(C)C(OC3CC(C)(O)C(O)C(C)O3)C(N(C)C)C2O)C(CC=O)CC(C)C(=O)C=CC(C)=CC1COC1OC(C)C(O)C(OC)C1OC", "note": "(configuration not stated) [Tylosin]", "LC retention time": 8.1}, {"compound": "CC1CC2C(C(O)CC3(C)C2CCC3(O)C(=O)CO)C2(C)C=CC(=O)C=C12", "note": "(configuration not stated) [Methylprednisolone]", "LC retention time": 9.2}, {"compound": "Cc1ccc2n[nH]nc2c1", "note": "[5-Methyl-1H-benzotriazole]", "LC retention time": 5.8}, {"compound": "CCC(C(N)=O)N1CCCC1=O", "note": "(configuration not stated) [Levetiracetam]", "LC retention time": 3}, {"compound": "CCOC(=O)Nc1cccc(OC(=O)Nc2ccccc2)c1", "note": "[Desmedipham]", "LC retention time": 9.2}, {"compound": "COC(=O)c1ccccc1S(=O)(=O)NC(=O)Nc1nc(C)nc(OC)n1", "note": "[Metsulfuron-methyl]", "LC retention time": 7.1}, {"compound": "Cn1c(=O)c2c(ncn2C)n(C)c1=O", "note": "[Caffeine]", "LC retention time": 4}, {"compound": "COc1nc(NC(C)C)nc(NC(C)C)n1", "note": "[Prometon]", "LC retention time": 6.7}, {"compound": "COc1ccc(C(=O)c2ccccc2)c(O)c1", "note": "[Benzophenone-3]", "LC retention time": 12.1}]}]}
